In article PMC2801564 (Chemistry & biology, 2009):

Biological target: T1, cathepsin L (CatL) (Ixodes ricinus, UniProt A4GTA6)
T1 sequence (A4GTA6 119-335): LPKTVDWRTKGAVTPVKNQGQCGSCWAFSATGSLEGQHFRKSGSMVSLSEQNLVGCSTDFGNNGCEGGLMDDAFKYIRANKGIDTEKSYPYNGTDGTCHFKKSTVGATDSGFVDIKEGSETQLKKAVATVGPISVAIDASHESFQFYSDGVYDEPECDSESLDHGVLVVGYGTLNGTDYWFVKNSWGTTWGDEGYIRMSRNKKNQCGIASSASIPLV
Assay: fluorimetric inhibition assay in gut extract
Format: biochemical
Conditions: DTT; pH optimum; 35 °C; covalent

`CC(C)C[C@H](NC(=O)[C@H]1O[C@@H]1C(=O)O)C(=O)NCCCCNC(=N)N` [E-64] was tested, and the “% inhibition” value was “insensitive to E-64 (in contrast to cathepsins B, L and C)”.
